Laboratory results as given in patent US6576811B1, “Transgenic rat with human normal type c-Ha-ras gene” (National Cancer Center Research Institute, priority 1998, dated 2003).
“And” between values parts separate entries of the source, which are not always exact repeats. Equal entries are not always repeated. Marks after values point to notes of the source that are not given here.

Assays:
[1] = tested on: Hras128 rats; experiment: MNU-induced mammary carcinogenesis in Hras128 transgenic rats; assay type: in vivo, rat
Protocol: (§1) MNU, at a dose of 50 mg/kg, was intravenously injected into Hras128 and wild type rats, at 50 days old, to perform histopathological examination of the incidence of mammary tumor and to screen the presence or absence of any point mutation of the transgene and endogenous c-Ha-ras gene.
(§2) Mammary tumor became palpable in the Hras128 strain rats, 5 weeks after MNU administration, and then multiple adenocarcinoma developed in all (100%) of the mammary glands of all the transgenic rats at week 8, but that in the wild type rats only 29.2% even at week 8 (see Table 1 and FIG. 2). In 102-strain rats, multiple adenocarcinoma was observed 16 weeks after MNU administration.

[2] = tested on: wild type rats (non Tg rats); experiment: MNU-induced mammary carcinogenesis in wild type rats (128 line); assay type: in vivo, rat; details: strain 128, 'MNU Treatment' cell '—' (wild type rats per text), week 8, 24 rats
Protocol: as §1, §2

[3] = tested on: Hras102 rats; experiment: MNU-induced mammary carcinogenesis in 102-strain transgenic rats; assay type: in vivo, rat
Protocol: as §1, §2

[4] = tested on: wild type rats (non Tg rats); experiment: MNU-induced mammary carcinogenesis in wild type rats (102 line); assay type: in vivo, rat; details: strain 102, 'MNU Treatment' cell '—' (probably wild rats), week 18, 13 rats
Protocol: as §1, §2

[5] = tested on: human c-Ha-ras proto-oncogene (transgene); experiment: Mutation analysis (RFLP, PCR-SSCP) of the transgene in carcinogen-induced tumors
Source text: Single-stranded DNA confirmation polymorphism (SSCP) analysis is able to be performed according to the followings; T. Sekiya. Protein, Nucleic Acid, Enzyme, vol.
Possible mutations in exons 1 to 4 of the human Ha-ras proto-oncogene and exons 1 and 2 of the endogenous gene were examined by PCR-SSCP analysis.
RFLP analysis is able to perform according to the followings; Nagase, et al., Protein, Nucleic Acid, Enzyme, vol.

[6] = tested on: endogenous Ha-ras gene (rat); experiment: Mutation analysis (PCR-SSCP) of the endogenous Ha-ras gene in carcinogen-induced tumors
Source text: Single-stranded DNA confirmation polymorphism (SSCP) analysis is able to be performed according to the followings; T. Sekiya. Protein, Nucleic Acid, Enzyme, vol. 41, No. 5, 539, 1996.
Possible mutations in exons 1 to 4 of the human Ha-ras proto-oncogene and exons 1 and 2 of the endogenous gene were examined by PCR-SSCP analysis. Using human or rat specific primers, only two bands appeared on the gals. With common primers (cHras21F and cHras21R) for Ha-ras exon 2 of both man and rats, four bands were detected. Human or rat specific bands were identified by signals from normal DNA of the transgenic and non-transgenic rats. DNA from T24 having a mutation in human Ha-ras of codon 12, GGC to GTC and that from pSK2 having a mutation in the codon 61, CAG to CTG, gave clearly mobility shifted bands in the assays (FIG. 4). However, a GGC to GAC mutation of the transgene enriched by PCR after RFLP analysis as described below, which was frequently observed in tumors induced by MNU in human Ha-ras proto-oncogene transgenic mice, could not be detected by SSCP -PCR analysis. In 44 tumors from Hras128 transgenic rats treated with MNU, mutations were not detected in exons 1 to 4 of the introduced human and endogenous c-Ha-ras genes under any of four SSCP conditions (at 4 or 20° C., with or without 5% glycerol) (Table 1). In contrast, a relatively high frequency (6 of 21 tumors of non-transgenic rats (28.6%) of GGA to GAA mutations in codon 12 of the endogenous Ha-ras gene was detected in mammary carcinomas of non-transgenic using PCR-SSCP analysis followed by direct sequencing (Table 1).

[7] = tested on: Hras128 rats; experiment: PhIP-induced mammary carcinomas in Hras128 rats; assay type: in vivo, rat
Source text: (§3) Well established mammary carcinogens, such as 7,14-dimethylbenz[a]anthracene (DMBA) and 2-amino-1-methyl-6-phenylimidazo[4,5-]pyridlne (PhIP) were given to the Hras128 rats in the same manner as in previous reports.

[8] = tested on: wild type rats (non Tg rats); experiment: PhIP-induced mammary carcinomas in wild type rats; assay type: in vivo, rat; details: 4 rats
Source text: as §3

[9] = tested on: Hras128 rats; experiment: Effects of d-limonene on MNU-induced mammary carcinogenesis in Hras128 transgenic rats; assay type: in vivo, rat; details: 5% d-limonene, 9 rats
[10] = strain 128, MNU performed, 50 mg/kg i.v., week 8 after injection, 22 rats
[11] = strain 102, MNU performed, week 18 after injection, 23 rats
[12] = MNU-induced mammary tumors, Hras128, 44 tumors examined
[13] = MNU-induced mammary tumors, Hras128, 44 tumors examined, SSCP
[14] = Hras128, mammary carcinomas, 6 rats
[15] = PhIP-induced mammary carcinomas, row printed 'Wild' (Hras128 per text), 20 tumors examined
[16] = PhIP-induced mammary carcinomas, row printed 'Wild' (Hras128 per text), 20 tumors examined, RFLP

With `CN(N=O)C(N)=O` [MNU, N-methyl-N-nitrosourea] the “Mammary tumor became palpable, time after MNU administration” value ([1]; Hras128 rats, MNU 50 mg/kg i.v. at 50 days old) was 5 weeks, the “Sensitivity of Tg rats to MNU-induced mammary carcinogenesis” value ([1]; Tg rats vs wild type) was “very sensitive” and the “No. of tumor-bearing rats” value [1, 10] was 22. The No. of tumor/rat [1, 10] was 14.0 ± 6.42, the “No. of tumor-bearing rats” value [2] was 7 and the No. of tumor/rat [2] was 0.46 ± 0.93. For the same molecule, the “Multiple adenocarcinoma observed, time after MNU administration” value ([3]; 102-strain rats, MNU 50 mg/kg i.v.) was 16 weeks, the “No. of tumor-bearing rats” value [3, 11] was 20 and the “No. of tumor-bearing rats (%)” value [3, 11] was “(87.0) %”. The No. of tumor/rat [3, 11] was 5.83 ± 5.31, the “No. of tumor-bearing rats” value [4] was 10 and the “No. of tumor-bearing rats (%)” value [4] was “(76.9) %”. For the same molecule, the No. of tumor/rat [4] was 3.00 ± 2.86, the “Tumors with transgene exon 2 (codon 61) mutation, number” value [5, 12] was 0 and the “Tumors with transgene exon 3 mutation, number” value [5, 12] was 0. For the same molecule, the “Tumors with transgene exon 4 mutation, number” value [5, 12] was 0, the “Tumors with endogenous (rat) exon 1 mutation, number” value [6, 13] was 0 and the “Tumors with endogenous (rat) exon 2 mutation, number” value [6, 13] was 0. For the same molecule, the “Tumors with endogenous (rat) exon 2 mutation, number” value ([6]; MNU-induced mammary tumors, Wild, 21 tumors examined, SSCP) was 0.

`Cn1c(N)nc2ncc(-c3ccccc3)cc21` [PhIP] was tested, and the Tumor size ([7]; Hras128, mammary carcinomas) was 9.23 ± 6.21 mm, the “No. of tumor-bearing rats” value [7, 14] was 6 and the “No. of tumor-bearing rats (%)” value [7, 14] was 100%. The No. of tumors/rat [7, 14] was 9.67 ± 4.76^b, the “Sensitivity of the Hras128 rat to PhIP” value ([7]; mammary carcinogenesis) was “highly sensitive” and the “No. of tumor-bearing rats” value [8] was 0(0). The “No. of tumor-bearing rats (%)” value [8] was 0(0) %, the No. of tumors/rat [8] was 0 and the “Transgene codon 12 mutations, %” value [5, 15] was 30%. The “Transgene codon 61 mutations, %” value [5, 15] was 23.1%, the “Transgene mutations total, number of tumors” value [5, 15] was 8 and the “Transgene codon 12 mutations, number of tumors” value [5, 16] was 6/20 and 6. The “Transgene codon 61 mutations, number of tumors” value [5, 16] was 3/20 and 3, the “Transgene mutations total, figure in parentheses” value ([5]; PhIP-induced mammary carcinomas, row printed 'Wild' (Hras128 per text), percent sign not given) was 61.5 and the “Endogenous (rat) exon 1 mutations, number of tumors” value [6, 15] was 0. For the same molecule, the “Endogenous (rat) exon 2 mutations, number of tumors” value [6, 15] was 0.

For `C=C(C)[C@H]1CC=C(C)CC1` [d-Limonene, d-limonene], the “Average size of tumors (mm)” value ([9]; basal diet control 10.7 ± 7.34, P < 0.01) was 8.23 ± 4.88 ^a mm, the No. of tumors/rat ([9]; basal diet control 26.4 ± 8.52) was 19.4 ± 6.71 and the “Average size of tumors (mm^3)” value ([9]; basal diet control 637.7 ± 1669, P < 0.01) was 269.5 ± 735.5 ^a mm^3.
